Laboratory results reported in US11117856B2, “Polyamine compounds targeting the efflux pumps of multi-drug resistant bacterial pathogens and methods of using the same” (UNIVERSITY OF SOUTH FLORIDA, priority 2016, dated 2021).
Several values for one entry are separate records, joined by “and”; a condition that tells them apart may be missing. Identical values can stand only once.

Legend:
[1] = tested on: tetracycline resistant strain of P. aeruginosa; test: Checkerboard potentiation assay with tetracycline; format: cell-based; conditions: for FP^#c (Fold Potentiation, EC90): Table 1, tetracycline EC90; for FP* (Fold Potentiation, EC50): EC50 tetracycline with no TPI/with TPI; for FP* (Fold Potentiation, EC50) / FP^# (Fold Potentiation, EC90): 25 μg mL^−1 TPI; for FP^# (Fold Potentiation, EC90): EC90 tetracycline with no TPI/with TPI; for FP*^c (Fold Potentiation, EC50): Table 1, tetracycline EC50; for TPI (inhibitory concentration of the polyamines alone to produce EC values): polyamine alone, no tetracycline, 25 μg mL^−1 highest concentration tested
Procedure: The bacterial strains used in this study are multi-drug resistant clinical isolates that have previously been described (TABLE 2) (Fleeman, et al. J. Med. Chem. 2015, 58, 3340-3355). Organisms were grown in tryptic soy broth (TSB) for overnight cultures, and cation adjusted Mueller Hinton broth (CA-MH II) was used for experimental procedures. All incubations were performed at 37° C.
Scaffold ranking library samples and individual polyamines were screened using checkerboard inhibitory assays to assess the potentiation of tetracycline and chloramphenicol. The test utilized a 96-well plate microtiter assay where the concentration of the scaffold or individual polyamine was decreased from 25 μg mL^−1 to 0.8 μg mL^−1 (average molarity of 65 μM to 4 μM) along the rows, and the concentration of tetracycline or chloramphenicol was increased from 0.4 μM to 100 μM across the columns. Plates were incubated statically at 37° C. for 20 hours, and the optical density (OD600) was determined using a Synergy 2 plate reader (Biotek). Potentiation modeling (detailed below) was performed to determine fold change in the 50% and 90% effective concentration of tetracycline or chloramphenicol.
Potentiation was quantified using a mathematical model developed by our group to assess the ability of library samples and individual compounds to effectively enhance the activity of tetracycline or chloramphenicol (Hoel, D. G. Statistical Aspects of Chemical Mixtures. Methods for assessing the effects of mixtures of chemicals. 1987, New York). […] In this way, only libraries and compounds that potentiated tetracycline or chloramphenicol activity were pursued. The model is based on the following equation for modeling the percentage activity of a mixture of two agents with independent action (Hoel, et al. Statistical Aspects of Chemical Mixtures. Methods for assessing the effects of mixtures of chemicals. 1987, New York): %Antibiotic & Comp(x1,x2)=%Antibiotic(x1)+%Comp(x2)−%Antibiotic(x1)·%Comp(x2)
Here, x1 and x2 are the concentrations of antibiotic (tetracycline or chloramphenicol) and library/compound (Comp) tested, respectively. This equation can be rearranged to model the effective percent activity (EC) of the antibiotic alone, after accounting for compound activity:
[formula] Thus, the model-adjusted checkerboards show the antibiotic activity post-potentiation, and from that one can determine the true change in MIC.

Hek293T cells = test: MTT cytotoxicity assay; format: cell-based, human; conditions: 25 μg mL^−1, 48 hours
Procedure: (§1) To assess toxicity of polyamine compounds we used HepG2 human liver carcinoma cells and Hek293T human embryonic kidney epithelial cells. […] J. Med. Chem. 2015, 58, 3340-3355). […] Cells were then incubated for 48 hours at 37° C. with 5% CO2. Following this, viability was assessed by the addition of MTT and measuring the OD570 in a Biotek plate reader. Percent recovery was determined compared to no drug controls.

P. aeruginosa = test: Bactericidal assessment with tetracycline; format: cell-based
Procedure: (§2) Lead agents were screened for bactericidal activity as described previously (Van Horn, et al. J. Med. Chem. 2014, 57, 3075-3093; […], et al. J. Med. Chem. 2015, 58, 3340-3355), with the following modifications. […] Biofilm experiments were performed similar to those described previously ([…], et al. J. Med. Chem. 2015, 58, 3340-3355; von Salm, et al. Org. Lett. 2016, 18, 2596-2599), with the following modifications.

P. aeruginosa biofilm = test: Pre-formed biofilm viability assessment with tetracycline; format: cell-based; conditions: for biofilm cells recovered, EPI alone: 25 μg mL^−1 (MPC), no tetracycline;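 as to biofilm recovery, combination treatment: percent recovery versus no treatment controls after 20 Hours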
Procedure: as §2

HepG2 cells = test: MTT cytotoxicity assay; format: cell-based, human; conditions: 25 μg mL^−1 (highest concentration tested), 48 hours
Procedure: as §1

P. aeruginosa cells = test: Bacterial membrane depolarization (DiSC3 dye); format: cell-based; conditions: 25 μg mL^−1
Procedure: To determine the level of membrane depolarization by polyamine compounds a 3,3′-dipropylthiadicarbocyanine Iodide (DiSC3) fluorescence dye was used. Exponentially growing cultures were prepared as described above, before being harvested by centrifugation. Cells were next washed in buffer A (5 mM HEPES pH 7.2, 5 mM glucose) and resuspended to an OD600 of 0.2 in the same buffer containing 100 mM KCl and 2 μM DiSC3. Samples were allowed to equilibrate for 15 minutes at room temperature to ensure uptake and quenching of the dye in bacterial membranes. Cells were aliquoted into 96-well plates and polyamines were added alongside the known efflux inhibitor PAN (all at 25 μg mL^−1). Nisin (25 μg mL^−1) was used as a positive control to display depolarization effects. A Biotek plate reader was used to monitor fluorescence of wells, with a 622 nm excitation and 670 nm emission. For graphical representation, the maximum relative fluorescence at 2 minutes was used for comparison of lead agents to controls.

[2] = 12 μM tetracycline + MPC of EPI
[3] = 50 μM tetracycline + MPC of EPI
[4] = 25 μM tetracycline + MPC of EPI

Compound	FP^#c (Fold Potentiation, EC90) [1] [fold]	FP* (Fold Potentiation, EC50) [1] [fold]	FP^# (Fold Potentiation, EC90) [1] [fold]	FP*^c (Fold Potentiation, EC50) [1]	TPI (inhibitory concentration of the polyamines alone to produce EC values) [1] [µg/mL]	percent recovery of Hek293T cells compared to solvent only controls (Hek293T cells) [%]	percent recovery, combination treatment (P. aeruginosa; [2]) [%]	percent recovery, combination treatment (P. aeruginosa; [3]) [%]	biofilm recovery, combination treatment (P. aeruginosa biofilm; [4]) [%]	biofilm cells recovered, EPI alone (P. aeruginosa biofilm) [%]	biofilm recovery, combination treatment (P. aeruginosa biofilm; [3]) [%]	HepG2 cell viability / recovery (HepG2 cells) [%]	change in DiSC3 fluorescence (membrane depolarization) (P. aeruginosa cells)	also measured
COC(=O)[C@H]1[C@H]2C[C@@H]3c4[nH]c5cc(OC)ccc5c4CCN3C[C@H]2C[C@@H](OC(=O)c2cc(OC)c(OC)c(OC)c2)[C@@H]1OC [Reserpine, reference compound]	1													
CNCCCC[C@@H](CN)NC[C@H](Cc1ccccc1)NCCc1ccccc1 [TPI 247, (S)—N6-methyl-N2—((S)-2-(phenethylamino)-3-phenylpropyl)hexane-1,2,6-triamine]	8.3	5	7.5	5 fold and 5.0 fold	>25	84	2.9	0.04	0.6	99.99	0.2			
NCC[C@@H](CN)NC[C@H](Cc1ccccc1)NCCc1ccccc1 [TPI 250, (S)—N^2—((S)-2-(phenethylamino)-3-phenylpropyl)butane-1,2,4-triamine]	7.8	7	7.8	7.0 fold	>25		2.2	0.01	1	99.99	0.5	80		biofilm recovery, combination treatment (P. aeruginosa biofilm; [2]): 21%; improvement of tetracycline alone biofilm eradication (P. aeruginosa biofilm; [2]): 67%
NCCC[C@H](CN)NC[C@H](Cc1ccccc1)NCCc1ccccc1 [TPI 271, (R)—N^2—((S)-2-(phenethylamino)-3-phenylpropyl)pentane-1,2,5-triamine]	8.5	8.2	8.5	8.2 fold	>25	75	2	0.02	0.5	99.99	0.2	74		
NCCC[C@@H](CN[C@H](CN)Cc1ccccc1)NCCc1ccccc1 [TPI 314, (S)—N^1—((S)-1-amino-3-phenylpropan-2-yl)-N^2-phenethylpentane-1,2,5-triamine]	7.5	5	7.5	5 fold and 5.0 fold	>25		5.3	0.01	1	99.99	0.6	77		
O=C(N[C@H](CO)[C@H](O)c1ccc([N+](=O)[O-])cc1)C(Cl)Cl [chloramphenicol]													decreased in florescence	
CN(C)[C@@H]1C(O)=C(C(N)=O)C(=O)[C@@]2(O)C(O)=C3C(=O)c4c(O)cccc4[C@@](C)(O)[C@H]3C[C@@H]12 [tetracycline, reference compound]														EC50 ([1]; Pseudomonas aeruginosa, no EPI, average across all replicates, read-out: tetracycline alone EC50): 47.8 µM; EC90 ([1]; no library or EPI, average across all replicates, read-out: tetracycline alone EC90): 82.5 µM; less recovery on increasing tetracycline alone (P. aeruginosa; from 12 μM to 25 μM): 17.8%; bacterial recovery, tetracycline alone (P. aeruginosa; tetracycline 12 μM): 53%; bacterial recovery, tetracycline alone (P. aeruginosa; tetracycline 25 μM): 35%; bacterial recovery, tetracycline alone (P. aeruginosa; tetracycline 50 μM): 1%; more biofilm eradication on increasing tetracycline by itself (P. aeruginosa biofilm; from 12 μM to 25 μM): 4%; biofilm cells recovered, tetracycline alone (P. aeruginosa biofilm; tetracycline 50 μM): 9%
nisin													strong increase in fluorescence	
phenylalanine arginine beta naphthalamide [PAβN, reference compound]	8			65.5 fold		63	0.79	0.02	7		1	68	strong increase in fluorescence	TPL (inhibitory concentration of the Torrey Pines Library alone to produce an EC90 value) [1]: >25 µg/mL; FP (Fold Potentiation, EC90) ([1]; EC90 tetracycline with no TPL/EC90 tetracycline with TPL, 25 μg mL−1 library): 8.01 fold; EPI*^a (inhibitory concentration of the individual Efflux Pump Inhibitor alone) ([1]; EPI alone, 50% effective concentration): >25 µg/mL; percent recovery, combination treatment (P. aeruginosa; [4]): 0.2%; bacterial recovery (viability), EPI alone (P. aeruginosa; 25 μg mL^−1, no tetracycline): 76%
